Measurements reported in ChEMBL document CHEMBL2157909, “Design, synthesis, spectral and biological evaluation of novel 1-allyl substituted 2,6-diphenylpiperidin-4-ones and its derivatives of oximes/oxime ethers” (2012).
Values after ≈ are worked out from the molar mass of the structure shown.

Columns and labels:
Staphylococcus aureus = test: Antibacterial activity against Staphylococcus aureus ATCC 25930 after 24 hrs by two fold serial dilution method; format: functional; details: ATCC 25930, 24 h
Bacillus subtilis = test: Antibacterial activity against Bacillus subtilis ATCC 530 after 24 hrs by two fold serial dilution method; format: functional; details: ATCC 530, 24 h
Salmonella typhi = test: Antibacterial activity against Salmonella typhi ATCC 25021 after 24 hrs by two fold serial dilution method; format: functional, Salmonella enterica subsp. enterica serovar Typhi; details: Salmonella enterica, ATCC 25021, 24 h
Escherichia coli = test: Antibacterial activity against Escherichia coli ATCC 26032 after 24 hrs by two fold serial dilution method; format: functional; details: ATCC 26032, 24 h
Pseudomonas = test: Antibacterial activity against Pseudomonas ATCC 27853 after 24 hrs by two fold serial dilution method; format: functional; details: ATCC 27853, 24 h
Penicillium chrysogenum = test: Antifungal activity against Penicillium chrysogenum ATCC 28089 after 72 to 96 hrs by two fold serial dilution method; format: functional
Aspergillus niger = test: Antifungal activity against Aspergillus niger ATCC 635 after 72 to 96 hrs by two fold serial dilution method; format: functional
Rhizopus = test: Antifungal activity against Rhizopus sp. ATCC 2842 after 72 to 96 hrs by two fold serial dilution method; format: functional
Fusarium oxysporum = test: Antifungal activity against Fusarium oxysporum ATCC 48112 after 72 to 96 hrs by two fold serial dilution method; format: functional
Aspergillus flavus = test: Antifungal activity against Aspergillus flavus ATCC 525 after 72 to 96 hrs by two fold serial dilution method; format: functional
[1] = Ratio of MIC for Bacillus subtilis ATCC 530 to MIC for Salmonella typhi ATCC 25021; format: functional
[2] = Ratio of MIC for Pseudomonas ATCC 27853 to MIC for Salmonella typhi ATCC 25021; format: functional

C=CCN1[C@H](c2ccc(C)cc2)C/C(=N\O)[C@@H](C)[C@@H]1c1ccc(C)cc1 (relative stereo)
MIC (Staphylococcus aureus): 200 µg/mL (≈ 574 µM) | MIC (Bacillus subtilis): 50 µg/mL (≈ 143 µM) | MIC (Salmonella typhi): 12.5 µg/mL (≈ 35.9 µM) | MIC (Escherichia coli): 50 µg/mL (≈ 143 µM) | MIC (Pseudomonas): 25 µg/mL (≈ 71.7 µM) | MIC (Penicillium chrysogenum): 200 µg/mL (≈ 574 µM) | MIC (Aspergillus niger): 12.5 µg/mL (≈ 35.9 µM) | MIC (Rhizopus): 100 µg/mL (≈ 287 µM) | MIC (Fusarium oxysporum): 25 µg/mL (≈ 71.7 µM) | MIC (Aspergillus flavus): 50 µg/mL (≈ 143 µM) | Ratio [1]: 3 | Ratio [2]: 2
